Measured values as given in US12208071B2, “Glucagon receptor antagonists” (LIGAND PHARMACEUTICALS INCORPORATED, priority 2018, dated 2025).
Entries after “also recorded” stand apart in the source; their conditions may differ. Like-named read-outs stand apart in the source and are kept apart here.

Legend:
Assay type in all cases: physicochemical
[1] = Hygroscopicity (DVS) of Polymorph Form A
Experimental: Details of DVS method used in the tests are summarized below: • Test the sorption/desorption profile of testing compound at 25° C. under 0-90% relative humidity. 3.3 HPLC Method
About 10 mg Polymorph Form A was weighed and the sorption/desorption profiles were set at 25° C. under 0-90% relative humidity. The compound after testing was also subjected to an XRPD test to determine if any polymorph changes exist after exposure to a cycle of humidity change.

[2] = pKa measurement (Sirius T3, pH-metric and UV-metric); conditions: pH-metric (MeOH, DMSO, Dioxane co-solvent) and UV-metric (DMSO) methods, pH 1.0 to pH 11.0
Experimental: There are two methods available on the Sirius T3 for pKa measurement: potentiometric titration and spectroscopic (UV) titration.
Potentiometric Titration Method is a method which works for any ionicable compound and its standard working range is pH 3.0 to pH 11.0. […] Where this cannot be achieved, the use of organic co-solvents to enhance the solubility is employed.
Its available pH range is typically between 0.5 and 13.5. A compound concentration of 50 μM is typically used, i.e., ten fold lower than the pH-metric method. Co-solvent determination may also be performed when the assayed compounds remain insoluble under all other conditions.
When co-solvent solutions had been employed by pH-metric method or UV-metric method, the psKa values are extrapolated to zero percent organic content using the Yasuda-Shedlovsky extrapolation procedure, which yields extrapolated aqueous pKa values and slope information which can be used to ascertain the acidic/basic characteristics of the ionisable groups.
About 1 mg of Polymorph Form A was weighed into a sample vial, about 1.5 mL of co-solvent (60v % DMSO, 80v % MeOH or 60v % Dioxane) was added into the vial manually, then titrated with acid or base to obtain a psKa value with co-solvent and water, and extrapolated to get aqueous pKa value. Tables 7-9 below and FIGS. 7A-9B provide the results of pKa determination by pH metric method. […]

[3] = Log P/D by shake-flask method (1-octanol/buffer, HPLC); conditions: for logD: 1-octanol/buffer
Experimental: First, a sample stock solution of Polymorph Form A (100 mmol/L in DMSO) was prepared. 20 μL each of sample DMSO stock solutions was added into 4 ml-vials, then dispensed into 990 μL of 1-octanol-saturated buffer at varied pH and 990 μL of buffer-saturated 1-octanol, vortexed for 3 min and shaken for 1 hr at […], then centrifuged at 2500 rpm for 2 min to get rid of bubbles in the solutions. Finally, buffer-layer sample and 1-octanol-layer sample were separated, and then buffer-layer sample and 1-octanol-layer sample was injected into HPLC, integrated the chromatography and calculated the sample concentrations ratio in both buffer and 1-octanol phase. The Log P/D result was obtained by following equation: […]
The Log P/D value of Polymorph Form A was acquired by shake-flask method using a HPLC system. Since the concentrations of Polymorph Form A in buffer layer are too low to analyze, based on the comparison of blank and standard solution (S/N=5), 0.05 μmol/L was used in buffer layer to calculate Log D.

[4] = Photostability / solid stability under light (5000 lux)
Experimental: Photostability testing was conducted on Polymorph Form A at 1- and 2-week intervals under light conditions of 5000 lux with the sample held at room temperature. The samples were tested for appearance, purity (HPLC), total related substances (TRS), and XRPD. The only change observed in the photostability samples was a decrease in purity of 0.6% at the 1-week interval.
About 3 mg Polymorph Form A was weighed in glass vials and samples stored under light condition (5000 lx) for 1 week and 2 weeks, separately. Another 20 mg testing compound was weighed in glass vials and the samples stored under light condition for 1 week and 2 weeks, separately. The original compound was stored at −20° C. as the control. The physical appearance, assay, total related substances (TRS) and XRPD pattern were checked at the end of the 1st week and the 2nd week.

[5] = 25° C., Cycle 1, target 0.0 % P/Po
[6] = 25° C., Cycle 1, target 10.0 % P/Po
[7] = 25° C., Cycle 1, target 20.0 % P/Po
[8] = 25° C., Cycle 1, target 30.0 % P/Po
[9] = 25° C., Cycle 1, target 40.0 % P/Po
[10] = 25° C., Cycle 1, target 50.0 % P/Po
[11] = 25° C., Cycle 1, target 60.0 % P/Po
[12] = 25° C., Cycle 1, target 70.0 % P/Po
[13] = 25° C., Cycle 1, target 80.0 % P/Po
[14] = 25° C., Cycle 1, target 90.0 % P/Po
[15] = 5000 Lux, open container, 0 weeks
[16] = 5000 Lux, open container, 1 week
[17] = 5000 Lux, open container, 2 weeks

For `Cc1cc(C)c(-c2ccc(NC(=O)[C@H](Cc3ccc(C(=O)NCCS(=O)(=O)[O-])cc3)c3ccc(-c4ccc(C(C)(C)C)cc4)cc3)cc2)c(C)c1.[Na+]` [Polymorph Form A, Sodium (R)-2-(4-(2-(4′-(tert-butyl)-[1,1′-biphenyl]-4-yl)-3-oxo-3-((2′,4′,6′-trimethyl-[1,1′-biphenyl]-4-yl)amino)propyl)benzamido)ethane-1-sulfonate], the “Change in Mass (%)-ref, Desorption” value [1, 5] was 0.20%, the “Change in Mass (%)-ref, Sorption” value [1, 5] was 0.00% and the “Change in Mass (%)-ref, Desorption” value [1, 6] was 1.64%. The “Change in Mass (%)-ref, Hysteresis” value [1, 6] was 0.29%, the “Change in Mass (%)-ref, Sorption” value [1, 6] was 1.35% and the “Change in Mass (%)-ref, Desorption” value [1, 7] was 2.73%. For the same compound, the “Change in Mass (%)-ref, Hysteresis” value [1, 7] was 0.39%, the “Change in Mass (%)-ref, Sorption” value [1, 7] was 2.34% and the “Change in Mass (%)-ref, Desorption” value [1, 8] was 4.08%. For the same compound, the “Change in Mass (%)-ref, Hysteresis” value [1, 8] was 0.50%, the “Change in Mass (%)-ref, Sorption” value [1, 8] was 3.58% and the “Change in Mass (%)-ref, Desorption” value [1, 9] was 5.48%. The “Change in Mass (%)-ref, Hysteresis” value [1, 9] was 0.63%, the “Change in Mass (%)-ref, Sorption” value [1, 9] was 4.85% and the “Change in Mass (%)-ref, Desorption” value [1, 10] was 6.98%. The “Change in Mass (%)-ref, Hysteresis” value [1, 10] was 0.87%, the “Change in Mass (%)-ref, Sorption” value [1, 10] was 6.11% and the “Change in Mass (%)-ref, Desorption” value [1, 11] was 8.08%. The “Change in Mass (%)-ref, Hysteresis” value [1, 11] was 0.39%, the “Change in Mass (%)-ref, Sorption” value [1, 11] was 7.69% and the “Change in Mass (%)-ref, Desorption” value [1, 12] was 13.12%. The “Change in Mass (%)-ref, Hysteresis” value [1, 12] was 3.90%, the “Change in Mass (%)-ref, Sorption” value [1, 12] was 9.21% and the “Change in Mass (%)-ref, Desorption” value [1, 13] was 16.12%. For the same compound, the “Change in Mass (%)-ref, Hysteresis” value [1, 13] was 1.04%, the “Change in Mass (%)-ref, Sorption” value [1, 13] was 15.09% and the “Change in Mass (%)-ref, Desorption” value [1, 14] was 20.08%. For the same compound, the “Change in Mass (%)-ref, Sorption” value [1, 14] was 20.08%, the Hygroscopicity classification ([1]; DVS, 0 to 90% RH, 25° C.) was “very hygroscopic” and the “XRPD after hygroscopicity test” value ([1]; after a cycle of humidity change) was “no change”. The weight gain ([1]; from 0 to 90% RH, 25° C.) was 20.08%, the pKa [2] was “could not be detected” and the logD ([3]; pH 1.5, read-out: Log D Rep.1) was > 4.32. The logD ([3]; pH 7.4, read-out: Log D Rep.1) was > 4.32, the logD ([3]; pH 1.0, read-out: Log D Rep.1) was > 4.32 and the logD ([3]; pH 2.0, read-out: Log D Rep.1) was > 4.32. The logD ([3]; pH 3.0, read-out: Log D Rep.1) was > 4.32, the logD ([3]; pH 4.0, read-out: Log D Rep.1) was > 4.32 and the logD ([3]; pH 11.0, read-out: Log D Rep.1) was > 4.32. The logD ([3]; pH range of 1.0 to 11.0, read-out: Log D values) was > 4.32, the “Log D Average” value ([3]; pH 1.0) was >4.32 and the “Log D Rep.2” value ([3]; pH 1.0) was >4.32. The “Log D Average” value ([3]; pH 1.5) was >4.32, the “Log D Rep.2” value ([3]; pH 1.5) was >4.32 and the “Log D Average” value ([3]; pH 2.0) was >4.32. For the same compound, the “Log D Rep.2” value ([3]; pH 2.0) was >4.32, the “Log D Average” value ([3]; pH 3.0) was >4.32 and the “Log D Rep.2” value ([3]; pH 3.0) was >4.32. For the same compound, the “Log D Average” value ([3]; pH 4.0) was >4.32, the “Log D Rep.2” value ([3]; pH 4.0) was >4.32 and the “Log D Average” value ([3]; pH 7.4) was >4.32. For the same compound, the “Log D Rep.2” value ([3]; pH 7.4) was >4.32, the “Log D Average” value ([3]; pH 11.0) was >4.32 and the “Log D Rep.2” value ([3]; pH 11.0) was >4.32. For the same compound, the Appearance [4, 15] was “White powder”, the “Purity (area %)” value [4, 15] was 99.8 area % and the “Total related substances (area %, w/w)” value [4, 15] was 0.25 area %, w/w. For the same compound, the Appearance [4, 16] was “White powder”, the “Purity (area %)” value [4, 16] was 99.2 area % and the “Total related substances (area %, w/w)” value [4, 16] was 0.25 area %, w/w. For the same compound, the XRPD [4, 16] was “Same form”, the Appearance [4, 17] was “White powder” and the “Purity (area %)” value [4, 17] was 99.2 area %. For the same compound, the “Total related substances (area %, w/w)” value [4, 17] was 0.25 area %, w/w, the XRPD [4, 17] was “Same form” and the “stability under light condition (overall)” value ([4]; 5000 lux, 2 weeks) was “No significant changes; also recorded: No significant increase in TRS % or decrease in recovery %; also recorded: relatively stable”. The decrease in purity ([4]; 5000 lux, room temperature, 1-week interval) was 0.6%, the Appearance ([4]; light (5000 lx), 1 week) was “white powder” and the TRS % ([4]; light (5000 lx), 1 week) was 0.25%. The XRPD pattern ([4]; light (5000 lx), 1 week) was “Form A”, the Appearance ([4]; light (5000 lx), 2 weeks) was “white powder” and the TRS % ([4]; light (5000 lx), 2 weeks) was 0.25%. The XRPD pattern ([4]; light (5000 lx), 2 weeks) was “Form A”, the Appearance ([4]; −20° C., 0 day (control)) was “white powder” and the TRS % ([4]; −20° C., 0 day (control)) was 0.25%. For the same compound, the XRPD pattern ([4]; −20° C., 0 day (control)) was “Form A”.
